Experimental findings from patent US20210261618A1 (TAIAN CITY QIHANG BIOTECHNOLOGY CO., priority 2018, published 2021) are described below.

The test system of data set [1] is transplanted tumor cells of human osteosarcoma MG63. The following applies: xenograft tumor after 4 weeks of administration; taxol group, each dose group of sp2. Here is the method: 2. AnnexinV-FITC cell apoptosis (annexinV)
2) 50,000-100,000 resuspended cells was taken, and centrifuged at 1000 g for 5 min. The supernatant was discarded, and 195 μl of AnnexinV-FITC binding solution was added to gently resuspend the cells.
6) Immediately flow cytometry detection was performed, wherein AnnexinV-FITC was green fluorescence, and PI was red fluorescence.

For data set [2] the following is noted: Kunming mice.
Experimental: (§1) 20 Kunming mice, healthy adults, half male and half male, weight 20 g±2%
(§2) 4) Route of administration: tail vein injection;
(§3) 5) Administration method: animal acute toxicity test with a single dose was to study the toxic reaction of the animal within a certain period of time after the animal was given the test substance once or multiple times within 24 h. In this experiment, 3 doses within 24 h were used, namely 0.5 mL/each, 3 times/day, with an interval of 3 h;
(§4) 6) Observing and recording the reaction symptoms of the test animals for 14 consecutive days with twice a day on the day of administration and the next day, and then once a day;
(§5) 7) At the end of the experiment, the animals were killed by cervical dislocation. All the test animals were dissected to observe whether their tissues and organs were changed in volume, color, texture, etc. and recorded;
Another data set in a line: in vivo. The following applies: both, Kunming, mouse, iv, 2000 mg/kgBW.
[3] abbreviates: 1 d after 2000 mg/kgBW tail vein.
[4] abbreviates: 3 d after 2000 mg/kgBW tail vein.
Where [5] appears, read: 5 d after 2000 mg/kgBW tail vein.
Setting [6] is: 7 d after 2000 mg/kgBW tail vein.
The mark [7] stands for this setting: 9 d after 2000 mg/kgBW tail vein.
Setting [8] is: 11 d after 2000 mg/kgBW tail vein.
Where [9] appears, read: 13 d after 2000 mg/kgBW tail vein.

Read-outs that look alike come from different tables or passages of the source. Where no end group is shown, it is not given here.

In general, NOAEL refers to the highest dose or exposure tested at which no adverse effect was seen.

Experimental for in vivo: as §1, §2, §3, §4, §5

Consider `CC(=O)O[C@H]1C(=O)[C@@]2(C)[C@H]([C@H](OC(=O)c3ccccc3)[C@]3(O)C[C@H](OC(=O)[C@H](O)[C@@H](NC(=O)c4ccccc4)c4ccccc4)C(C)=C1C3(C)C)[C@]1(OC(C)=O)CO[C@@H]1C[C@@H]2O` [taxol], for which the “tumor cell apoptosis compared to the model group” value in data set [1] is reported as “increase the tumor cell apoptosis rate (P<0.05)”.

As for RVLNGPEEEAAAPAE [sp2], the “animal weight, female (group value)” value was determined as 26.458 in data set [2] (setting [3]); 28.245 in data set [2] (setting [4]); 29.135 in data set [2] (setting [5]); 30.603 in data set [2] (setting [6]); 31.884 in data set [2] (setting [7]); 33.355 in data set [2] (setting [8]). Besides, the “animal weight, female (group value)” value in data set [2] (setting [9]) came out at 33.25. Also, the “animal weight, male (group value)” value in data set [2] (setting [3]) was determined as 27.565; in data set [2] (setting [4]), 31.131; in data set [2] (setting [5]), 33.177; in data set [2] (setting [6]), 35.699; in data set [2] (setting [7]), 37.611; in data set [2] (setting [8]), 38.017. The “animal weight, male (group value)” value in data set [2] (setting [9]) came to 38.456. In data set [2] (tail vein, observed 14 days), the “maximum non-toxic dose administered intravenously” value was found to be 2000 mg/kgBW. Further, in the data set “in vivo”, the NOAEL at 336 h turned out to be 2000 mg/kg.
